Experimental data: patent US20260070902A1, “SULFONYL DERIVATIVES AS CCR6 INHIBITORS” (Hoffmann-La Roche Inc., priority 2022, published 2026)

How the values were obtained:
Assay type in all cases: cell-based
[1] = tested on: Human CD4+ T cells; assay: CD4+ T cells chemotaxis assay towards CCL20; conditions: 3 h; for IC50: Homo sapiens, CD4+ T cell, relative -Log IC50, human CD4+ T cells stimulated with anti-CD3 and anti-CD28, migration towards 150 ng/ml CCL20; for CD4+ T-cell chemotaxis: relative -Log IC50, human CD4+ T cells stimulated with anti-CD3 and anti-CD28, migration towards 150 ng/ml CCL20
Description: CD4+ T Cells Chemotaxis Assay Towards CCL20
Human CD4+ T cells were isolated from buffy coats of healthy donors using a CD4+ T Cell Isolation Kit (Miltenyi Biotec130-096-533). Isolated T cells were stimulated overnight with anti-CD3 and anti-CD28 antibodies (Biolegend 300314/302934) in growth medium (RPMI1640, 10% heat-inactivated FBS, 1× pen/strep (Gibco 15140)). For the chemotaxis assay, Corning Transwell plates were used with a pore size of 5 m (Corning 3388). T cells were counted and diluted to 6*10^6 cells/ml in chemotaxis medium (RPMI1640, 1% BSA, pen/strep). Compounds were four-fold serially diluted in DMSO. Further dilutions were made in chemotaxis medium. Cells were incubated with test compounds for 30 min at 37° C. prior to initiation of the assay (3*10^6 cells/ml). Final DMSO concentration in the assay was 0.2%. Wells of the Transwell plates were filled with 200 μl chemotaxis medium containing 150 ng/ml CCL20 (R&D systems 360-MP). 50 μl of the cell/compound suspension was added to the inserts of the Transwell plates (150,000 cells/insert). The Transwell plates were placed in an incubator at 37° C., 5% CO2 for 3 h. After 3 h, the number of migrated cells was quantified using CellTiter Glo (Promega). Percentage inhibition values were calculated based on the low and high signal obtained with 0.2% DMSO in chemotaxis medium without and with CCL20, respectively. The relative −Log IC50 was determined with GraphPad Prism 9 using a four-parameter dose-response model.

[2] = biological target: T1, human CCR6 (Homo sapiens, UniProt P51684); assay: Human CCR6-CRE reporter assay; set-up: The second construct contained the open reading frame of human CCR6 in the pUNO1 backbone; host or cells: 293FT cells; conditions: relative -Log IC50; 293FT cells transfected with human CCR6 and CRE-luciferase reporter; 6 μM Forskolin, 6 nM CCL20; 5 h
T1 sequence (P51684 1-374): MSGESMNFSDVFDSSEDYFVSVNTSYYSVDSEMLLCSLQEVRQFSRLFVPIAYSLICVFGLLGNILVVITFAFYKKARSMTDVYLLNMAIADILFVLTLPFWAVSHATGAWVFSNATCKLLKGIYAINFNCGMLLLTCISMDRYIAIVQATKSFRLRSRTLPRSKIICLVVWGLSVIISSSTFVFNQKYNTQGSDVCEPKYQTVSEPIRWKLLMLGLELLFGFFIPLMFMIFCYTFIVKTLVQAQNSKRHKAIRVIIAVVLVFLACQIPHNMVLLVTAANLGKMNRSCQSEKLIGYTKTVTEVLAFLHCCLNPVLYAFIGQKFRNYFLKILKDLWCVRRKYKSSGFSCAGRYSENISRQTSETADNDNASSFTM
Procedure, shortened: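 293FT cells transiently co-transfected with human CCR6 and a CRE-luc2P reporter, used 48 h later. Compounds incubated with cells in medium containing 6 μM Forskolin and 6 nM CCL20 (assay-medium levels), 0.1% DMSO final, 5 h at 37° C; luminescence read, relative −Log IC50 from four-parameter fit.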

[3] = biological target: T1, human CCR6; assay: CHO-K1 CCR6 chemotaxis assay towards CCL20; conditions: relative -Log IC50; CHO-K1 cells overexpressing human CCR6; migration towards 100 ng/ml CCL20; 4 h
Procedure, shortened: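 Human CCR6-overexpressing CHO-K1 cells (2*10^6 cells/ml) were preincubated 30 min at 37 °C with compound (0.2% DMSO), then allowed to migrate 4 h through 8 µm Transwell pores toward 100 ng/ml CCL20. Migrated cells were counted by CellTiter Glo. −Log IC50 came from four-parameter fits normalised to DMSO without/with CCL20.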

Compound	IC50 [1] [nM]	IC50 [2] [nM]	CD4+ T-cell chemotaxis [1]	IC50 [3] [nM]
O=C1NCCC12CCN(c1ccc(S(=O)(=O)N3CCC(Nc4ccc(S(F)(F)(F)(F)F)cc4)CC3)cc1)CC2 [Example 134, 8-{4-[(4-{[4-(pentafluoro-λ^6-sulfanyl)phenyl]amino}piperidin-1-yl)sulfonyl]phenyl}-2,8-diazaspiro[4.5]decan-1-one]	10	158	–	–
CC(C)c1nnc2ccc(-c3ccc(S(=N)(=O)[C@H]4CC[C@H](Nc5ccc(S(F)(F)(F)(F)F)cc5)CC4)cc3)cn12 (single isomer, unassigned; (+)) [Example 163, (+)-{4-[3-(propan-2-yl)-[1,2,4]triazolo[4,3-a]pyridin-6-yl]phenyl}[trans-4-{[4-(pentafluoro-λ^6-sulfanyl)phenyl]amino}cyclohexyl](imino)-λ^6-sulfanone]	–	79.4	7.8	–
COC1CC2(CCN(c3ccc(S(=O)(=O)N4CCC(Nc5ccc(S(F)(F)(F)(F)F)cc5)CC4)cc3)CC2)C1 [Example 132, 1-(4-{2-methoxy-7-azaspiro[3.5]nonan-7-yl}benzenesulfonyl)-N-[4-(pentafluoro-λ^6-sulfanyl)phenyl]piperidin-4-amine]	20	79.4	–	–
CC(C)c1nnc2cnc(-c3ccc(S(=O)(=O)N4CCC(Nc5ccc(S(F)(F)(F)(F)F)cc5)CC4)cc3)cn12 [Example 140, N-[4-(pentafluoro-λ^6-sulfanyl)phenyl]-1-{4-[3-(propan-2-yl)-[1,2,4]triazolo[4,3-a]pyrazin-6-yl]benzenesulfonyl}piperidin-4-amine]	2.51	63.1	–	–
N#Cc1cnc2ccc(-c3ccc(S(=O)(=O)N4CCC(Nc5cccc(S(F)(F)(F)(F)F)c5)CC4)cc3)cn12 [Example 81, 6-{4-[(4-{[3-(pentafluoro-λ^6-sulfanyl)phenyl]Amino}piperidin-1-yl)sulfonyl]phenyl}imidazo[1,2-a]pyridine-3-carbonitrile]	158	126	–	–
O=S(=O)(c1ccc(-c2ccc3nccn3c2)nc1)N1CCC(Nc2ccc(S(F)(F)(F)(F)F)cc2)CC1 [Example 77, 1-[(6-{imidazo[1,2-a]pyridin-6-yl}pyridin-3-yl)sulfonyl]-N-[4-(pentafluoro-λ^6-sulfanyl)phenyl]piperidin-4-amine]	126	501	–	–
Cc1[nH]nc2ccc(-c3ccc(S(=O)(=O)N4CCC(Nc5ccc(S(F)(F)(F)(F)F)cc5)CC4)cc3)cc12 [Example 2, 1-[4-(3-methyl-2H-indazol-5-yl)benzenesulfonyl]-N-[4-(pentafluoro-λ^6-sulfanyl)phenyl]piperidin-4-amine]	5.01	63.1	–	–
O=C1NC(=O)C2(CCN(c3ccc(S(=O)(=O)N4CCC(Nc5ccc(S(F)(F)(F)(F)F)cc5)CC4)cc3)CC2)N1 [Example 133, 8-{4-[(4-{[4-(pentafluoro-λ^6-sulfanyl)phenyl]amino}piperidin-1-yl)sulfonyl]phenyl}-1,3,8-triazaspiro[4.5]decane-2,4-dione]	3.98	39.8	–	–
O=c1[nH]ccn2cc(-c3ccc(S(=O)(=O)[C@H]4CC[C@H](Nc5ccc(S(F)(F)(F)(F)F)cc5)CC4)cc3)cc12 [Example 154, 7-(4-{[trans-4-{[4-(pentafluoro-λ^6-sulfanyl)phenyl]amino}cyclohexyl]sulfonyl}phenyl)-1H,2H-pyrrolo[1,2-a]pyrazin-1-one]	7.94	126	–	–
O=S(=O)(c1ccc(N2CC3CCC(C2)O3)cc1)N1CCC(Nc2ccc(S(F)(F)(F)(F)F)cc2)CC1 [Example 137, 1-(4-{8-oxa-3-azabicyclo[3.2.1]octan-3-yl}benzenesulfonyl)-N-[4-(pentafluoro-λ^6-sulfanyl)phenyl]piperidin-4-amine]	126	200	–	–
Cc1n[nH]c2ncc(-c3ccc(S(=O)(=O)[C@H]4CC[C@H](Nc5ccc(S(F)(F)(F)(F)F)cc5)CC4)cc3)cc12 [Example 150, 4-(pentafluoro-λ^6-sulfanyl)-N-[trans-4-(4-{3-methyl-1H-pyrazolo[3,4-b]pyridin-5-yl}benzenesulfonyl)cyclohexyl]aniline]	1	63.1	–	–
N#Cc1n[nH]c2ccc(-c3ccc(S(=O)(=O)N4CCC(Nc5ccc(S(F)(F)(F)(F)F)cc5)CC4)cc3)cc12 [Example 4, 5-{4-[(4-{[4-(pentafluoro-λ^6-sulfanyl)phenyl]Amino}piperidin-1-yl)sulfonyl]phenyl}-1H-indazole-3-carbonitrile]	0.794	50.1	–	–
Cc1nc2ccc(-c3ccc(S(=O)(=O)[C@H]4CC[C@H](Nc5ccc(S(F)(F)(F)(F)F)cc5)CC4)cc3)cn2n1 [Example 40, 4-(pentafluoro-λ^6-sulfanyl)-N-[trans-4-(4-{2-methyl-[1,2,4]triazolo[1,5-a]pyridin-6-yl}benzenesulfonyl)cyclohexyl]aniline]	10	100	–	–
CC(C)c1nnc2ccc(-c3ccc(S(=N)(=O)[C@H]4CC[C@H](Nc5ccc(S(F)(F)(F)(F)F)cc5)CC4)cc3)cn12 (single isomer, unassigned; (-)) [Example 164, (−)-{4-[3-(propan-2-yl)-[1,2,4]triazolo[4,3-a]pyridin-6-yl]phenyl}[trans-4-{[4-(pentafluoro-λ^6-sulfanyl)phenyl]amino}cyclohexyl](imino)-λ^6-sulfanone]	–	126	6.7	–
N=S(=O)(c1ccc(-c2ccnc(C(N)=O)c2)cc1)[C@H]1CC[C@H](Nc2ccc(S(F)(F)(F)(F)F)cc2)CC1 (single isomer, unassigned; (+)) [Example 130, (+)-4-(4-{[trans-4-{[4-(pentafluoro-λ^6-sulfanyl)phenyl]Amino}cyclohexyl]sulfonimidoyl}phenyl)pyridine-2-carboxamide]	–	200	7.3	–
NC(=O)c1cc(-c2ccc(S(=O)(=O)[C@H]3CC[C@H](Nc4ccc(S(F)(F)(F)(F)F)cc4)CC3)cc2)cs1 [Example 148, 4-(4-{[trans-4-{[4-(pentafluoro-λ^6-sulfanyl)phenyl]amino}cyclohexyl]sulfonyl}phenyl)thiophene-2-carboxamide]	5.01	50.1	–	–
N=S(=O)(c1ccc(-c2ccnc(C(N)=O)c2)cc1)[C@H]1CC[C@H](Nc2ccc(S(F)(F)(F)(F)F)cc2)CC1 (single isomer, unassigned; (-)) [Example 131, (−)-4-(4-{[trans-4-{[4-(pentafluoro-λ^6-sulfanyl)phenyl]Amino}cyclohexyl]sulfonimidoyl}phenyl)pyridine-2-carboxamide]	–	316	6.6	–
CNC(=O)c1cccc(-c2ccc(S(=O)(=O)[C@H]3CC[C@H](Nc4ccc(S(F)(F)(F)(F)F)cc4)CC3)cc2)c1 [Example 21, N-methyl-4′-{[trans-4-{[4-(pentafluoro-λ^6-sulfanyl)phenyl]Amino}cyclohexyl]sulfonyl}-[1,1′-biphenyl]-3-carboxamide]	–	31.6	–	12.6
Cc1cnc2ccc(-c3ccc(S(=O)(=O)N4CCC(Nc5ccc(S(F)(F)(F)(F)F)cc5)CC4)cn3)cn12 [Example 69, 1-[(6-{3-methylimidazo[1,2-a]pyridin-6-yl}pyridin-3-yl)sulfonyl]-N-[4-(pentafluoro-λ^6-sulfanyl)phenyl]piperidin-4-amine]	–	794	–	794
